Values of other authors as cited in patent US20260256742A1, “ANDROGEN RECEPTOR ANTAGONISTS FOR THE TREATMENT OF PATIENTS WITH BIOCHEMICAL RECURRENCE OF HORMONE SENSITIVE PROSTATE CANCER” (BAYER CONSUMER CARE AG, priority 2023, published 2026).

Key:
[1] = in vivo; cited from earlier work
[2] = single oral administration; cited from earlier work
nmCRPC = details: in combination with ADT, patients with nmCRPC; cited from earlier work
T878A AR mutant = T878A AR mutant (Homo sapiens, UniProt P10275, T878A); details: cited from earlier work
Sequence of T878A AR mutant (P10275 whole entry T878A): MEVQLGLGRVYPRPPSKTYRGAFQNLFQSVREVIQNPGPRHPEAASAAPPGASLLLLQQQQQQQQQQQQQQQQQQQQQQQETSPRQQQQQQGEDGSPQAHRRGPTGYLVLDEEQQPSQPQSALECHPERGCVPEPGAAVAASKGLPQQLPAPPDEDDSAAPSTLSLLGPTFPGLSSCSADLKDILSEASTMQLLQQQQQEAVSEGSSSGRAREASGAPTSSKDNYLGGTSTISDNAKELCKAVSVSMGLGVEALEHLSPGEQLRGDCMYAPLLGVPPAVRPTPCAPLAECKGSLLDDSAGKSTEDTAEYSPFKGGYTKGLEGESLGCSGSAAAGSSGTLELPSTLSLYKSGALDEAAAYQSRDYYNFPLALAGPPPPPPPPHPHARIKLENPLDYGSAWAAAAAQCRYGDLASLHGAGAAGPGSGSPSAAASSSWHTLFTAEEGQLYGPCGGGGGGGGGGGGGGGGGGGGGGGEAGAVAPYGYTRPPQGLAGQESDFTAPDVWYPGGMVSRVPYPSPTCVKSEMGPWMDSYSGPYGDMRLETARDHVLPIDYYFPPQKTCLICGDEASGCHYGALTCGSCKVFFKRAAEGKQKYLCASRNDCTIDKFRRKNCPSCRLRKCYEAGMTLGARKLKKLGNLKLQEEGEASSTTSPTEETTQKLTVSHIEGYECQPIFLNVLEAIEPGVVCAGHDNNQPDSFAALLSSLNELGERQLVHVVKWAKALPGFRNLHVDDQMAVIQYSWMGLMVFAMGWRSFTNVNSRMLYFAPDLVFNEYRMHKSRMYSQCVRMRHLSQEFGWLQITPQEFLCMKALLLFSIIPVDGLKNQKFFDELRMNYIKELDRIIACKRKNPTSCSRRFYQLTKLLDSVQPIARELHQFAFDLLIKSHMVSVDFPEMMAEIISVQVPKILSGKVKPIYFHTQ

Compound | metastatic free survival (MFS) (nmCRPC) | overall survival (OS) (nmCRPC) | further results
CC(Cn1ccc(-c2ccc(C#N)c(Cl)c2)n1)NC(=O)c1cc(C(C)O)[nH]n1 (single isomer, unassigned) [(S,R) diastereoisomer] | – | – | elimination compared with the other diastereoisomer [1]: faster elimination
CC(O)c1cc(C(=O)N[C@@H](C)Cn2ccc(-c3ccc(C#N)c(Cl)c3)n2)[nH]n1 (some centres unmarked) [[^14C]-darolutamide] | – | – | exposure in prostate tissue [2]: higher; tissue distribution [2]: wide and homogenous distribution in all tissues except the brain
CNC(=O)c1ccc(N2C(=S)N(c3cnc(C#N)c(C(F)(F)F)c3)C(=O)C23CCC3)cc1F [apalutamide] | significantly increased | significantly increased | –
CNC(=O)c1ccc(N2C(=S)N(c3ccc(C#N)c(C(F)(F)F)c3)C(=O)C2(C)C)cc1F [enzalutamide] | significantly increased | significantly increased | –
CC(C)(O)C(=O)Nc1ccc([N+](=O)[O-])c(C(F)(F)F)c1 [hydroxyflutamide] | – | – | action in T878A AR mutant (T878A AR mutant): AR agonists
